Key:
[1] = target: Glutamate receptor ionotropic kainate (Homo sapiens) (UniProt P39086+Q16478+Q16099+Q13002+Q13003); assay: Inhibition of kainate receptor at 1 nM; assay type: protein-complex assay
[2] = target: Sodium-dependent noradrenaline transporter (Homo sapiens, UniProt P23975); assay: Inhibition of NET at 100 nM
[3] = target: GABA-A receptor; agonist GABA site (Homo sapiens) (UniProt P14867+P47870+P28472+P48169+P34903+P18505+P47869+P31644+Q16445); assay: Inhibition of agonist site of GABAA receptor at 100 nM; assay type: functional
[4] = target: L-type calcium channel, dihydropyridine site (Homo sapiens, UniProt O60840+Q01668+Q13698+Q13936); assay: Inhibitory activity at dihydropyridine site of Calcium channel L type at 100 nM; assay type: protein assay
[5] = Inhibitory activity at TBOB site in GABA gated chloride channel at 100 nM
[6] = target: 5-hydroxytryptamine receptor 2A (Homo sapiens, UniProt P28223); assay type: cell-based, CHO
[7] = organism: Homo sapiens; assay: Inhibition of inositol triphosphate IP3 at 100 nM; assay type: functional
[8] = target: Leukotriene B4 receptor (Homo sapiens) (UniProt Q9NPC1+Q15722); assay: Inhibition of leukotriene B4 at 1 nM; assay type: protein assay
[9] = target: T1, Atrial natriuretic peptide receptor 1 (Homo sapiens) (UniProt P16066); assay: Inhibition of ANP A at 100 nM
T1 sequence (whole entry): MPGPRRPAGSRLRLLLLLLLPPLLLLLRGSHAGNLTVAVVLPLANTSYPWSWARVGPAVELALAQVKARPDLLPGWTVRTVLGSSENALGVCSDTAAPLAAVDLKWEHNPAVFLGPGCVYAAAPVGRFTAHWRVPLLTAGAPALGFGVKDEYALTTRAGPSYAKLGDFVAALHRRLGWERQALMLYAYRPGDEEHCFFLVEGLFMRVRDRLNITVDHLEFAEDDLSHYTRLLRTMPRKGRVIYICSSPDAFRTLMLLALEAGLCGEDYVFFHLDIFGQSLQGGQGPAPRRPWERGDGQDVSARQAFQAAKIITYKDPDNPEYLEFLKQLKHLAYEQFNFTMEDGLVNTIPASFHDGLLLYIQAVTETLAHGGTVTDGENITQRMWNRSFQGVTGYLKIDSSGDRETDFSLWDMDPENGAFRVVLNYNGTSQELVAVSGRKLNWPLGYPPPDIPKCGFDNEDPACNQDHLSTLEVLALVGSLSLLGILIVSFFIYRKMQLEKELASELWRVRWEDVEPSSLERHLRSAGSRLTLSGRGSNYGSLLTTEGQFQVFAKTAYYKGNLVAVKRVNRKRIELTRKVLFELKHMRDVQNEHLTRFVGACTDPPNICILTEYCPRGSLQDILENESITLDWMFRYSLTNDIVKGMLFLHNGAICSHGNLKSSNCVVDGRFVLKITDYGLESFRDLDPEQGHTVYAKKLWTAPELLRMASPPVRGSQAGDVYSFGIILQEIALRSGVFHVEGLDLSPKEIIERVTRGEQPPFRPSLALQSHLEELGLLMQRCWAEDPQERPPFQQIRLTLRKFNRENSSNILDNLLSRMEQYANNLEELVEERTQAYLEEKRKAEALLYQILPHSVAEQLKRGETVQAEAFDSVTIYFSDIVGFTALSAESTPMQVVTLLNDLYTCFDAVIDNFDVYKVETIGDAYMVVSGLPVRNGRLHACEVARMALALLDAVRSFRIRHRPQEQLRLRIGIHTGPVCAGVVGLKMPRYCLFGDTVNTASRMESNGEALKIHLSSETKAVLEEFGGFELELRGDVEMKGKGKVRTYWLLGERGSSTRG

[10] = target: Epidermal growth factor receptor (Homo sapiens) (UniProt P00533); assay: Inhibition of EGFR at 100 nM
[11] = target: Platelet-activating factor receptor (Homo sapiens) (UniProt P25105); assay: Inhibition of PAF at 100 nM
[12] = target: Platelet-activating factor receptor (Homo sapiens) (UniProt P25105); assay: Inhibition of PAF at 10 uM
[13] = target: T2, B2 bradykinin receptor (Homo sapiens) (UniProt P30411); assay: Inhibition of bradykinin 2 receptor at 10 uM
T2 sequence (whole entry): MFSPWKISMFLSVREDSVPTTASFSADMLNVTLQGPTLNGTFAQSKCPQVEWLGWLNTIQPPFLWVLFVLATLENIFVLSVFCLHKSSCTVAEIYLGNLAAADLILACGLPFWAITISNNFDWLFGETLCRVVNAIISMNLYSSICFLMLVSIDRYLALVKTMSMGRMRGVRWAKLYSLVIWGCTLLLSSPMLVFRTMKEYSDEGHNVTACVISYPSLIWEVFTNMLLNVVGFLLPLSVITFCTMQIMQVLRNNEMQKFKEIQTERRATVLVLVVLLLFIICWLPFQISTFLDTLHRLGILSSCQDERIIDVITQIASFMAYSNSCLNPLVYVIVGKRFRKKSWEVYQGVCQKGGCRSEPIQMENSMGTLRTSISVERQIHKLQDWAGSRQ

[14] = target: Adenosine receptor (Homo sapiens) (UniProt P30542+P29275+P0DMS8+P29274); assay: Inhibition of non selective binding to adenosine receptor at 100 nM; assay type: protein assay
[15] = Half life in phosphate buffer at pH 7.4 in 25 degC; assay type: ADME
[16] = target: T3, 5-hydroxytryptamine receptor 1A (Homo sapiens, UniProt P08908); assay: Displacement of [3H]8-OH-DPAT from recombinant human 5HT1A receptor expressed in CHO cells; assay type: cell-based
T3 sequence (P08908 whole entry): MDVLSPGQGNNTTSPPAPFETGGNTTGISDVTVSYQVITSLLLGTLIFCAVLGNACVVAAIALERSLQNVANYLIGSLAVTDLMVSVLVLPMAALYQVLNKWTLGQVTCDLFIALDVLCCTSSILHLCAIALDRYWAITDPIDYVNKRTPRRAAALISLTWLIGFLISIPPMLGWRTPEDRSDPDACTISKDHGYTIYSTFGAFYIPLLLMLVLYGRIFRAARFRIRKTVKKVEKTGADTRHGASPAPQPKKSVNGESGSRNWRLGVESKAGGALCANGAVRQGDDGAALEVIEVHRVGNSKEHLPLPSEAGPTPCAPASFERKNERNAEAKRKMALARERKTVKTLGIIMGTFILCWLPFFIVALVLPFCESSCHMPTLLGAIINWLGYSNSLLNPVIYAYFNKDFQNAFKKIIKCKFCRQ

[17] = target: T3, 5-hydroxytryptamine receptor 1A; assay: Agonistic activity at cloned human 5HT1A receptor expressed in CHO cells by inhibition of forskolin-induced cAMP production; assay type: functional, cell-based
[18] = target: 5-hydroxytryptamine receptor 2B (Homo sapiens, UniProt P41595); assay: biochemical
Sequence of 5-hydroxytryptamine receptor 2B (P41595 whole entry): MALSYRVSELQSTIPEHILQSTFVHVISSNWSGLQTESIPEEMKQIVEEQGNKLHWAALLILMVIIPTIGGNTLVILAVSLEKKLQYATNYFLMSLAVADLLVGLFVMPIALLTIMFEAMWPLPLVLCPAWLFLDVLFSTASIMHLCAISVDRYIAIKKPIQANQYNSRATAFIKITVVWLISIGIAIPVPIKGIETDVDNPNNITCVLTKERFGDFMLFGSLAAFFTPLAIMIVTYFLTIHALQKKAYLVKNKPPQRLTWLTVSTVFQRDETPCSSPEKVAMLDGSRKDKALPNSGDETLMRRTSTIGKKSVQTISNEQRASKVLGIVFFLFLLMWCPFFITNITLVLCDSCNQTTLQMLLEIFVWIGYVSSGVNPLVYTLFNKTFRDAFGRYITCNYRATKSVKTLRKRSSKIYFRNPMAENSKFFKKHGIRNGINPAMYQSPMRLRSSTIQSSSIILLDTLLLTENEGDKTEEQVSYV
Description: Displacement of [125I]DOI from cloned human 5HT2B receptor expressed in CHO cells

Sequence of Platelet-activating factor receptor (Homo sapiens) (P25105 whole entry): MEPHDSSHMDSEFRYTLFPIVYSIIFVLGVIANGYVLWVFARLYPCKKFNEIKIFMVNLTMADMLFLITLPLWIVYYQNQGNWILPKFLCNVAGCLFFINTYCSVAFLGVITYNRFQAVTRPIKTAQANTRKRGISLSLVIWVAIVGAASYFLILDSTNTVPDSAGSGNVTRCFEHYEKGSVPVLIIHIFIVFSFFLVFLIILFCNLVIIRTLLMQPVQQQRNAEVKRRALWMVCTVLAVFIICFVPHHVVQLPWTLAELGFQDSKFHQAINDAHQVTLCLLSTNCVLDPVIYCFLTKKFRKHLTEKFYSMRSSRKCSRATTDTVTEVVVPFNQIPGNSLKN
Sequence of Leukotriene B4 receptor (Homo sapiens) (Q15722 whole entry, looked up): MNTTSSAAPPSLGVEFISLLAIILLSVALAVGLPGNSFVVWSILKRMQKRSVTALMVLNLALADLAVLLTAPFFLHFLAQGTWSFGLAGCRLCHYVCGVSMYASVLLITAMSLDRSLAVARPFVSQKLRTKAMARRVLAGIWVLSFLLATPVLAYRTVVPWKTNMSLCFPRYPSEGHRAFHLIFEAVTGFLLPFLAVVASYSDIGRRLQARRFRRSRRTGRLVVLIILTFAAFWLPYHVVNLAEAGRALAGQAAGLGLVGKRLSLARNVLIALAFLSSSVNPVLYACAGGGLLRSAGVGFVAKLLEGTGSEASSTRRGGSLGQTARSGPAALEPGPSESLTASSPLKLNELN
Sequence of Leukotriene B4 receptor (Homo sapiens) (Q9NPC1 whole entry, looked up): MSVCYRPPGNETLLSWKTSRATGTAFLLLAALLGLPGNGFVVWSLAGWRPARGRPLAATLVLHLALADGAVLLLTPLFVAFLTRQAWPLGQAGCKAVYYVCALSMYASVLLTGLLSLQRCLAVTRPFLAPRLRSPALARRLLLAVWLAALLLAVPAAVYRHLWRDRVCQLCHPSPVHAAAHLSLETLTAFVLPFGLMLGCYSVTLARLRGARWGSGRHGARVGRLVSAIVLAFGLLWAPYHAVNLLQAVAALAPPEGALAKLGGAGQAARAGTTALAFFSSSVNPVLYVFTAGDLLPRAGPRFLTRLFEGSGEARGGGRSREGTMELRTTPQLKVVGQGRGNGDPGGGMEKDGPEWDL
Sequence of Adenosine receptor (Homo sapiens) (P0DMS8 whole entry, looked up): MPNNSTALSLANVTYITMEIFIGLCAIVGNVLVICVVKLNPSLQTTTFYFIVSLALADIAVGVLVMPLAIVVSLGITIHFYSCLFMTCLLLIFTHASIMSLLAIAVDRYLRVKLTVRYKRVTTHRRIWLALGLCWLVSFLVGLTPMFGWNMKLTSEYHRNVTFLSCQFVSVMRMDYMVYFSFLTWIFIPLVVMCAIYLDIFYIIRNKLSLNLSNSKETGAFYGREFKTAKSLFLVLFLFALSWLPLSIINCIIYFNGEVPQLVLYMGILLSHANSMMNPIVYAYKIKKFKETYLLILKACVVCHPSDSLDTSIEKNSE
Sequence of Adenosine receptor (Homo sapiens) (P29274 whole entry, looked up): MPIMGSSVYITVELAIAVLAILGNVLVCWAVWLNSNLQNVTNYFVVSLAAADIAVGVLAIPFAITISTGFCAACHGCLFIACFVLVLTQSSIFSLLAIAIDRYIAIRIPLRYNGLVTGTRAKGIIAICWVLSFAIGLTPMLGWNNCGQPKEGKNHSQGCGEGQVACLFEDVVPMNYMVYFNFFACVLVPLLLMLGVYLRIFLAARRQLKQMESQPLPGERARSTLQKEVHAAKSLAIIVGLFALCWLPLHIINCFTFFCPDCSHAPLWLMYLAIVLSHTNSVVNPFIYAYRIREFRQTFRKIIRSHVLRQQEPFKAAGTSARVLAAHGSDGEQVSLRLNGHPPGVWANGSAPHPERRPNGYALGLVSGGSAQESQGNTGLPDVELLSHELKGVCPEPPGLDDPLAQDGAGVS
Sequence of Adenosine receptor (Homo sapiens) (P29275 whole entry, looked up): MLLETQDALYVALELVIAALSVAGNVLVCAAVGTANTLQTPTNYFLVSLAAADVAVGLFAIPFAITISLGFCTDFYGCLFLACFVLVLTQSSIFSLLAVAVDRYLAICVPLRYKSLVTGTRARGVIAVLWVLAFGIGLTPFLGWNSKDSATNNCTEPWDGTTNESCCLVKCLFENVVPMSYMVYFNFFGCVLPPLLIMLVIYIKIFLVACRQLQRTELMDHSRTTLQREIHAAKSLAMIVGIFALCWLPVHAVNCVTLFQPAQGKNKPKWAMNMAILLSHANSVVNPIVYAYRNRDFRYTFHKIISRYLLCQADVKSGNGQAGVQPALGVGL
Sequence of Adenosine receptor (Homo sapiens) (P30542 whole entry, looked up): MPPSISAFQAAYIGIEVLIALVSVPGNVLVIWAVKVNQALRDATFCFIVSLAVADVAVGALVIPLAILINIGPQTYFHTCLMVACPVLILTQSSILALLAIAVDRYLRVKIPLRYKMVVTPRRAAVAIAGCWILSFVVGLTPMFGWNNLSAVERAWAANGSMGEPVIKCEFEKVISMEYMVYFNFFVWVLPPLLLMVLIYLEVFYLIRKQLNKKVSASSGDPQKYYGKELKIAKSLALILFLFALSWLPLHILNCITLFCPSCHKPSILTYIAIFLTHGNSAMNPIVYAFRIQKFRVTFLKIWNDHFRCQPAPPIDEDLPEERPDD
Sequence of Sodium-dependent noradrenaline transporter (P23975 whole entry): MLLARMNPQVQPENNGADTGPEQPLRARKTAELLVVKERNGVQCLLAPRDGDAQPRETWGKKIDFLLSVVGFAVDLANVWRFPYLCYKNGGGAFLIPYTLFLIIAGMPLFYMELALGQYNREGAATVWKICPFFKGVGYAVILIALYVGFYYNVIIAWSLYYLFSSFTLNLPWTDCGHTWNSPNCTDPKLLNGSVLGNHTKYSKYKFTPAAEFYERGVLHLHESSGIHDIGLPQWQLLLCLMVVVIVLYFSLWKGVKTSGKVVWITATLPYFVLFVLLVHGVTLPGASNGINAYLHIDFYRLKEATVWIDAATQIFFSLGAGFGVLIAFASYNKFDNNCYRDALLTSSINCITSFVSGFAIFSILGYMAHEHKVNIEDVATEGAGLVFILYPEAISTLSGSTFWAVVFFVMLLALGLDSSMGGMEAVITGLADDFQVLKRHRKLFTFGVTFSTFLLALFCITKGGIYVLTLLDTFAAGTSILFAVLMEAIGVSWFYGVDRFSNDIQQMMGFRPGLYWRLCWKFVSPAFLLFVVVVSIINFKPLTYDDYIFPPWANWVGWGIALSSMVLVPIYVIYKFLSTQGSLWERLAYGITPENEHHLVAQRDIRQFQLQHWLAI
Sequence of 5-hydroxytryptamine receptor 2A (P28223 whole entry): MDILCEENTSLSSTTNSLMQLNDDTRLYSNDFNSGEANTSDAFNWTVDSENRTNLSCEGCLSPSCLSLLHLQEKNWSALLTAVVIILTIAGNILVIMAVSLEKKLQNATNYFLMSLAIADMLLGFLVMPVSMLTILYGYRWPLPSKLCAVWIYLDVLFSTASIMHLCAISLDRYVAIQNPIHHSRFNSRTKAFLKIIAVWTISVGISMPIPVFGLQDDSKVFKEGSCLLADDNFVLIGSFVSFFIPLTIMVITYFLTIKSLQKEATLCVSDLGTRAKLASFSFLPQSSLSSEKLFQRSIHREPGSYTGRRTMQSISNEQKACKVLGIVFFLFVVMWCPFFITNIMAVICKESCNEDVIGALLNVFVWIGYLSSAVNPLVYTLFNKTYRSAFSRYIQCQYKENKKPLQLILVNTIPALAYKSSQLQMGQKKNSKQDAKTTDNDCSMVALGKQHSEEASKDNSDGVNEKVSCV

## C[C@H](N)Cn1ncc2ccc(O)cc21
[1]
  inhibition: 12%
[2]
  inhibition: 3.93%
[3]
  inhibition: -0.91%
[4]
  inhibition at 0.1 µM: 12%
[5]
  inhibition: -5.9%
[6]
  Ki: 12 nM
[7]
  inhibition: 8.56%
[8]
  inhibition: 0.44%
[9]
  inhibition: 3.01%
[10]
  inhibition: 1.86%
[11]
  inhibition: 24.8%
[12]
  inhibition: 34.4%
[13]
  inhibition: 0.11%
[14]
  inhibition: 13.6%
[15]
  T1/2: 4.6 yr
[16]
  Ki: 141 nM
[17]
  EC50: 1460 nM
[18]
  Ki: 8.1 nM

From ChEMBL document CHEMBL1148572, “1-((S)-2-aminopropyl)-1H-indazol-6-ol: a potent peripherally acting 5-HT2 receptor agonist with ocular hypotensive activity” (J Med Chem, 2006)
